Test results taken from PMC3748936 (Chembiochem : a European journal of chemical biology, 2012).

Legend:
E. coli GMPS [1] = target: T1, E. coli GMPS (Escherichia coli, UniProt P04079); details: previous report; cited from earlier work
T1 sequence (P04079 1-525): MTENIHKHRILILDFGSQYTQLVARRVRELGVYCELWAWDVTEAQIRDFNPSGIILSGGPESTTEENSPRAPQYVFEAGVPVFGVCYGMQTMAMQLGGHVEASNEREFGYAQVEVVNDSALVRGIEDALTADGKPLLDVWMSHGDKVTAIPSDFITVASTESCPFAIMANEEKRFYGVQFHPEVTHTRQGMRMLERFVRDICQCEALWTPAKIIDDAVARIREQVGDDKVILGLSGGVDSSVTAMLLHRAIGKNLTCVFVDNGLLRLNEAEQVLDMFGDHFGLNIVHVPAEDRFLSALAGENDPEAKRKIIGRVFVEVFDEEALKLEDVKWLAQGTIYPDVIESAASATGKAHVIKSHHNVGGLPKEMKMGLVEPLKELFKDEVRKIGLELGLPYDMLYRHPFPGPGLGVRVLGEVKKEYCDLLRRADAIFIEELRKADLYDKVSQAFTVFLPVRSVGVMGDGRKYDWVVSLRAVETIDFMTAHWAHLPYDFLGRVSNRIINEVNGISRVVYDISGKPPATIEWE

E. coli GMPS [2] = target: T1, E. coli GMPS; assay: GMPS inhibition of D-XMP amination, UV-Vis analysis; format: biochemical
GMPS = details: previous report; cited from earlier work
E. coli GMPS [3] = target: T1, E. coli GMPS; assay: HPLC-based assay of GMPS enzymatic reaction products; format: biochemical
E. coli GMPS [4] = target: T1, E. coli GMPS; assay: Continuous UV spectrophotometric assay of GMPS; format: biochemical; details: UV-Vis analysis, triplicate, average +/- S.D.
[5] = tested on: GMPS isolated from rat Walker sarcoma cells; details: cited from earlier work
[6] = substrate: O=c1[nH]c(=O)c2ncn([C@@H]3O[C@H](COP(=O)(O)O)[C@@H](O)[C@H]3O)c2[nH]1; assay: Continuous UV spectrophotometric assay of GMPS; format: biochemical, E. coli; details: other: UV-Vis analysis; triplicate, average +/- S.D.

In the case of O=c1[nH]c(=O)c2ncn([C@@H]3O[C@H](COP(=O)(O)O)[C@@H](O)[C@H]3O)c2[nH]1 [D-XMP, xanthosine 5′-monophosphate], the “kcat (turnover number)” value (E. coli GMPS [1]) is given as 9.4×10^–2 s^–1.

In the case of OC[C@H]1O[C@@H](n2cnc3c(O)nc(O)nc32)[C@H](O)[C@@H]1O [D-Xanthosine, D-xanthosine], the “GMPS inhibition (in words)” value (E. coli GMPS [2]) is reported as “neither molecule inhibited GMPS”.

In the case of C=C1O[C@@](CO)(n2cnc3c(N)ncnc32)[C@H](O)[C@@H]1O [Decoyinine, decoyinine], the Ki (GMPS) is listed as 26 µM and the Ki (E. coli GMPS [2]) is listed as 54.1 ± 14.5 µM.

In the case of O=c1[nH]c(=O)c2ncn([C@H]3O[C@@H](COP(=O)(O)O)[C@H](O)[C@@H]3O)c2[nH]1 [L-XMP], the “fold more potent than decoyinine inhibition against E. coli GMPS” value (E. coli GMPS [2]; from Ki values) is reported as about 7 fold, the “Km fold higher than the natural enantiomer D-XMP” value (E. coli GMPS [3]; HPLC analysis) is reported as ~ 10 fold and the “kcat fold difference in turnover number compared to D-XMP” value (E. coli GMPS [3]; HPLC analysis) is reported as 15,000 fold. For the same molecule, the “kcat/Km (specific activity) fold decrease from the natural enantiomer” value (E. coli GMPS [3]; HPLC analysis) was 140,000 fold, the “conversion of substrate by GMPS (HPLC peak, MS confirmed)” value (E. coli GMPS [3]; incubation with GMPS and NH4OAc) was “converted to L-GMP by GMPS” and the kcat (E. coli GMPS [4]; substrate turnover to GMP) was 3.1 (± 0.7) × 10^−6 s^−1. The Km (E. coli GMPS [4]) was 330 ± 105 µM.

For O=c1[nH]c(=O)c2ncn(C3OC(CO)C(O)C3O)c2[nH]1 [L-Xanthosine, L-xanthosine], the “GMPS inhibition (in words)” value (E. coli GMPS [2]) was “neither molecule inhibited GMPS”.

For NC(=O)c1ncn([C@@H]2O[C@H](CO)[C@@H](O)[C@H]2O)c1O [Mizoribine], the Ki (E. coli GMPS [2]) is given as 1.8 ± 0.7 µM and the Ki [5] is given as 10 µM.

B1: E. coli GMPS (Escherichia coli K-12) (protein)
chain: T1 sequence (P04079 1-525)
In the case of B1, the Km [6] is reported as 24.9 ± 6.6 µM, the kcat [6] is reported as 0.043 ± 0.007 s⁻¹ and the kcat/Km [6] is reported as 1700 M⁻¹ s⁻¹.
